Test results: patent publication US20260193293A1, “PEPTIDES CAPABLE OF INHIBITING PROTEIN-PROTEIN INTERACTIONS AT GABAB1A SUBUNIT AND USES THEREOF” (UNIVERSITY OF COPENHAGEN, priority 2022, published 2026)
Read-outs that look alike come from different tables or passages of the source. Non-standard residues stand in square brackets, D forms with d. Residues, ends and D or L forms follow the SMILES beside them. *: point of attachment. 1Nal = N[C@@H](Cc1cccc2ccccc12)C(=O)O; NMeF = CN[C@@H](Cc1ccccc1)C(=O)O; NMeD = CN[C@@H](CC(=O)O)C(=O)O; Bn = c1ccc(C*)cc1; Sar = CNCC(=O)O

Biological target: Sushi domains (SD1/2) protein
Test: Fluorescence polarization (FP) competition assay with AJAP-1probe, calculated Ki
Assay type: binding
In short: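 Competition against 25 nM TAMRA-labelled peptide probe binding SD1/2, in PBS pH 7.4 with 1% BSA at rt, read at 530/580 nm. IC50 from sigmoidal dose-response fits, at least triplicate; Ki calculated from IC50 using probe Kd from saturation binding.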

[1] = Table 13, peptides for affinity maturation, read-out: Ki (nM) mean ± SEM
[2] = Table 4, truncation and elongation scans of APP epitope, read-out: Ki (nM) mean ± SEM
[3] = Table 5, elongation and truncation scan of AJAP-1 binding epitope, read-out: Ki (nM) mean ± SEM
[4] = Table 16, ncAAs incorporated peptides, read-out: Ki (nM) mean ± SEM
[5] = Table 8, Ala-, D-amino acids and N-methylation scans of AJAP-1WT, read-out: Ki (nM) mean ± SEM

Q: How did the Ki [1] turn out when `CC(=O)N[C@@H](CCC(=O)O)C(=O)N[C@@H](CC(=O)O)C(=O)N[C@@H](CC(=O)O)C(=O)N[C@@H](CO)C(=O)N[C@@H](CC(=O)O)C(=O)N[C@H](C(=O)N[C@@H](Cc1c[nH]c2ccccc12)C(=O)N[C@@H](Cc1c[nH]c2ccccc12)C(=O)N[C@@H](Cc1ccc(O)cc1)C(=O)NCC(=O)N(C)CC(=O)N[C@H](C(=O)NCC(=O)N[C@@H](CC(=O)O)C(=O)N[C@@H](CCC(=O)O)C(=O)N[C@@H](CC(=O)O)C(N)=O)[C@@H](C)O)C(C)C` (Ac-EDDSDVWWYG[Sar]TGDED-NH2) was run?
A: 138 ± 5 nM

Q: Which Ki (Table 11, cells printed in μM, read-out: Ki (nM) mean ± SEM) does the source give for `CC[C@H](C)[C@H](NC(=O)[C@H](CCCCN)NC(=O)[C@H](CCC(=O)O)NC(=O)[C@@H](NC(=O)[C@H](CCC(=O)O)NC(C)=O)[C@@H](C)O)C(=O)N[C@@H](C)C(=O)N[C@@H](Cc1c[nH]c2ccccc12)C(=O)NCC(=O)N1CCC[C@H]1C(=O)N[C@H](C(=O)NCC(=O)N[C@@H](CC(=O)O)C(=O)N[C@@H](CCC(=O)O)C(=O)N[C@@H](CC(=O)O)C(N)=O)[C@@H](C)O` [ETEKIAWGPTGDED] (Ac-ETEKIAWGPTGDED-NH2) here?
A: > 6250 nM

Q: With `CC(=O)N[C@@H](CC(=O)O)C(=O)N[C@@H](CC(=O)O)C(=O)N[C@@H](CO)C(=O)N[C@@H](CC(=O)O)C(=O)N[C@H](C(=O)N[C@@H](Cc1c[nH]c2ccccc12)C(=O)N[C@@H](Cc1c[nH]c2ccccc12)C(=O)NCC(=O)NCC(=O)N[C@@H](C)C(=O)N[C@@H](CC(=O)O)C(=O)N[C@H](C(=O)N[C@@H](CC(=O)O)C(=O)N[C@@H](Cc1ccc(O)cc1)C(=O)N[C@@H](C)C(=O)N[C@@H](CC(=O)O)C(N)=O)[C@@H](C)O)C(C)C` (Ac-DDSDVWWGGADTDYAD-NH2) as the compound, how does the Ki [2] read?
A: 517 ± 16 nM

Q: `CC(=O)N[C@@H](CCC(=O)O)C(=O)N[C@@H](CC(=O)O)C(=O)N[C@@H](CC(=O)O)C(=O)N[C@@H](CO)C(=O)N[C@@H](CC(=O)O)C(=O)N[C@H](C(=O)N[C@@H](Cc1c[nH]c2ccccc12)C(=O)N[C@@H](Cc1c[nH]c2ccccc12)C(=O)NCC(=O)N1CCC[C@H]1C(=O)N[C@@H](C)C(=O)N[C@@H](CC(=O)O)C(=O)N[C@H](C(=O)N[C@@H](CC(=O)O)C(N)=O)[C@@H](C)O)C(C)C` (Ac-EDDSDVWWGPADTD-NH2) was tested. Which Ki (Table 10, deep mutational scanning validation variants of APPWT, read-out: Ki (nM) mean ± SEM) did it give?
A: 332 ± 13 nM

Q: Which Ki [3] does the source give for `CC[C@H](C)[C@H](NC(=O)[C@H](Cc1ccccc1)NC(=O)[C@H](CCC(=O)O)NC(=O)[C@@H](NC(=O)[C@H](CCC(=O)O)NC(=O)[C@@H](NC(C)=O)[C@@H](C)O)[C@@H](C)O)C(=O)N[C@@H](C)C(=O)N[C@@H](Cc1c[nH]c2ccccc12)C(=O)NCC(=O)N1CCC[C@H]1C(=O)N[C@H](C(=O)NCC(=O)N[C@@H](CC(=O)O)C(N)=O)[C@@H](C)O` (Ac-TETEFIAWGPTGD-NH2) here?
A: 97 ± 7 nM

Q: With `CC(=O)N[C@@H](CCC(=O)O)C(=O)N[C@@H](CC(=O)O)C(=O)N[C@@H](CC(=O)O)C(=O)N[C@@H](CO)C(=O)N[C@@H](CC(=O)O)C(=O)N[C@H](C(=O)N[C@@H](Cc1c[nH]c2ccccc12)C(=O)N[C@@H](Cc1c[nH]c2ccccc12)C(=O)N[C@@H](Cc1ccc(O)cc1)C(=O)N(C)CC(=O)N[C@@H](C)C(=O)N[C@@H](CC(=O)O)C(=O)N[C@H](C(=O)N[C@@H](CC(=O)O)C(N)=O)[C@@H](C)O)C(C)C` (Ac-EDDSDVWWY[Sar]ADTD-NH2) as the compound, how does the Ki [1] read?
A: 201 ± 6 nM

Q: For `CC[C@H](C)[C@H](NC(=O)[C@H](Cc1ccccc1)NC(C)=O)C(=O)N[C@@H](C)C(=O)N[C@@H](Cc1c[nH]c2ccccc12)C(=O)NCC(=O)N1CCC[C@H]1C(=O)N[C@H](C(=O)NCC(=O)N[C@@H](CC(=O)O)C(=O)N[C@@H](CCC(=O)O)C(=O)N[C@@H](CC(=O)O)C(N)=O)[C@@H](C)O` [FIAWGPTGDED] (Ac-FIAWGPTGDED-NH2), which Ki [3] is on record?
A: 118 ± 1 nM

Q: For `CC[C@H](C)[C@H](NC(=O)[C@H](Cc1c[nH]c2ccccc12)NC(=O)[C@H](CC(=O)O)NC(=O)[C@H](CC(=O)O)NC(=O)[C@H](CC(=O)O)NC(=O)[C@H](CCC(=O)O)NC(=O)[C@H](CCCNC(=N)N)NC(=O)[C@H](CCCNC(=N)N)NC(=O)[C@H](CCCNC(=N)N)NC(=O)[C@H](CCC(N)=O)NC(=O)[C@H](CCCNC(=N)N)NC(=O)[C@H](CCCNC(=N)N)NC(=O)[C@H](CCCCN)NC(=O)[C@H](CCCCN)NC(=O)[C@H](CCCNC(=N)N)NC(=O)CNC(=O)[C@H](Cc1ccc(O)cc1)NC(C)=O)C(=O)N[C@@H](CC(=O)O)C(=O)N[C@@H](Cc1c[nH]c2ccccc12)C(=O)NCC(=O)N1CCC[C@H]1C(=O)N[C@H](C(=O)N[C@@H](CO)C(=O)N[C@@H](CC(=O)O)C(=O)N[C@@H](CC(=O)O)C(=O)N[C@@H](CC(=O)O)C(N)=O)[C@@H](C)O` [Tat-17] (Ac-YGRKKRRQRRREDDDWIDWGPTSDDD-NH2), which Ki (CPP tagged peptides overview, SD1/2 binding affinity, mean ± SEM, n ≥ 3, read-out: Ki) is on record?
A: 50 ± 2 nM

Q: What about the Ki (Table 14, CPPs tagged peptides, read-out: Ki (nM) mean ± SEM) of the same compound?
A: 49.9 ± 2 nM

Q: How did the Ki (Table 11, deep mutational scanning validation variants of AJAP-1WT, read-out: Ki (nM) mean ± SEM) turn out when `CC[C@H](C)[C@H](NC(=O)[C@H](Cc1ccccc1)NC(=O)[C@H](CCC(=O)O)NC(=O)[C@@H](NC(=O)[C@H](CCC(=O)O)NC(C)=O)[C@@H](C)O)C(=O)N[C@@H](C)C(=O)N[C@@H](Cc1c[nH]c2ccccc12)C(=O)NCC(=O)N1CCC[C@H]1C(=O)N[C@H](C(=O)NCC(=O)N[C@@H](Cc1c[nH]cn1)C(=O)N[C@@H](CCC(=O)O)C(=O)N[C@@H](CC(=O)O)C(N)=O)[C@@H](C)O` [ETEFIAWGPTGHED] (Ac-ETEFIAWGPTGHED-NH2) was run?
A: 60 ± 4 nM

Q: `CC(=O)N[C@@H](CCC(=O)O)C(=O)N[C@@H](CC(=O)O)C(=O)N[C@@H](CC(=O)O)C(=O)N[C@@H](CO)C(=O)N[C@@H](CC(=O)O)C(=O)N[C@H](C(=O)N[C@@H](Cc1c[nH]c2ccccc12)C(=O)N[C@@H](Cc1c[nH]c2ccccc12)C(=O)NCC(=O)NCC(=O)N[C@@H](C)C(=O)N(C)[C@@H](CC(=O)O)C(=O)N[C@H](C(=O)N[C@@H](CC(=O)O)C(N)=O)[C@@H](C)O)C(C)C` (Ac-EDDSDVWWGGA[NMeD]TD-NH2) was tested. Which Ki (Table 7, Ala-, D-amino acids and N-methylation scans of APPWT, read-out: Ki (nM) mean ± SEM) did it give?
A: 403 ± 14 nM

Q: With `CC[C@H](C)[C@H](NC(=O)[C@H](Cc1ccc(OCc2ccccc2)cc1)NC(=O)[C@H](CC(=O)O)NC(=O)[C@H](CC(=O)O)NC(=O)[C@H](CC(=O)O)NC(=O)[C@H](CCC(=O)O)NC(C)=O)C(=O)N[C@@H](CC(=O)O)C(=O)N[C@@H](Cc1c[nH]c2ccccc12)C(=O)NCC(=O)N1CCC[C@H]1C(=O)N[C@H](C(=O)N[C@@H](CO)C(=O)N[C@@H](CC(=O)O)C(=O)N[C@@H](CC(=O)O)C(=O)N[C@@H](CC(=O)O)C(N)=O)[C@@H](C)O` [Peptide 35] (Ac-EDDDY(Bn)IDWGPTSDDD-NH2) as the compound, how does the Ki (Table 1, affinity maturation, mean ± SEM, n ≥ 3, read-out: Ki) read?
A: 9.5 ± 0.3 nM

Q: What about the Ki [4] of the same compound?
A: 9.5 ± 0.3 nM

Q: `CC(=O)N[C@@H](CC(=O)O)C(=O)N[C@@H](CO)C(=O)N[C@@H](C)C(=O)N[C@@H](CC(=O)O)C(=O)N[C@@H](C)C(=O)N[C@@H](CCC(=O)O)C(=O)N[C@@H](CCC(=O)O)C(=O)N[C@@H](CC(=O)O)C(=O)N[C@@H](CC(=O)O)C(=O)N[C@@H](CO)C(=O)N[C@@H](CC(=O)O)C(=O)N[C@H](C(=O)N[C@@H](Cc1c[nH]c2ccccc12)C(=O)N[C@@H](Cc1c[nH]c2ccccc12)C(=O)NCC(=O)NCC(=O)N[C@@H](C)C(=O)N[C@@H](CC(=O)O)C(=O)N[C@H](C(=O)N[C@@H](CC(=O)O)C(=O)N[C@@H](Cc1ccc(O)cc1)C(=O)N[C@@H](C)C(=O)N[C@@H](CC(=O)O)C(N)=O)[C@@H](C)O)C(C)C` (Ac-DSADAEEDDSDVWWGGADTDYAD-NH2) was tested. Which Ki [2] did it give?
A: 513 ± 17 nM

Q: For `CC(=O)N[C@@H](CCC(=O)O)C(=O)N[C@@H](CC(=O)O)C(=O)N[C@@H](CC(=O)O)C(=O)N[C@@H](CO)C(=O)N[C@@H](Cc1cccc2ccccc12)C(=O)N[C@H](C(=O)N[C@@H](Cc1c[nH]c2ccccc12)C(=O)N[C@@H](Cc1c[nH]c2ccccc12)C(=O)NCC(=O)NCC(=O)N[C@@H](C)C(=O)N[C@@H](CC(=O)O)C(=O)N[C@H](C(=O)N[C@@H](CC(=O)O)C(N)=O)[C@@H](C)O)C(C)C` (Ac-EDDS[1Nal]VWWGGADTD-NH2), which Ki [4] is on record?
A: 69 ± 3 nM

Q: `CC[C@H](C)[C@H](NC(=O)[C@H](Cc1ccccc1)NC(=O)[C@H](CCC(=O)O)NC(=O)[C@@H](NC(=O)[C@H](CCC(=O)O)NC(C)=O)[C@@H](C)O)C(=O)N[C@@H](C)C(=O)N[C@@H](Cc1c[nH]c2ccccc12)C(=O)NCC(=O)N1CCC[C@H]1C(=O)N[C@H](C(=O)NCC(=O)N[C@@H](CC(=O)O)C(=O)N[C@@H](CCC(=O)O)C(=O)N[C@@H](C)C(N)=O)[C@@H](C)O` (Ac-ETEFIAWGPTGDEA-NH2) was tested. Which Ki [5] did it give?
A: 44 ± 1 nM

Q: With `CC[C@H](C)[C@H](NC(=O)[C@H](Cc1ccccc1)NC(=O)[C@H](CCC(=O)O)NC(=O)[C@@H](NC(=O)[C@H](CCC(=O)O)NC(=O)[C@@H](NC(C)=O)[C@@H](C)O)[C@@H](C)O)C(=O)N[C@@H](C)C(=O)N[C@@H](Cc1c[nH]c2ccccc12)C(=O)NCC(=O)N1CCC[C@H]1C(=O)N[C@H](C(=O)NCC(=O)N[C@@H](CC(=O)O)C(=O)N[C@@H](CCC(=O)O)C(=O)N[C@@H](CC(=O)O)C(=O)N[C@@H](C)C(=O)N[C@@H](CC(C)C)C(N)=O)[C@@H](C)O` (Ac-TETEFIAWGPTGDEDAL-NH2) as the compound, how does the Ki [3] read?
A: 47 ± 2 nM

Q: `CC[C@H](C)[C@H](NC(=O)[C@H](Cc1ccccc1)N(C)C(=O)[C@H](CCC(=O)O)NC(=O)[C@@H](NC(=O)[C@H](CCC(=O)O)NC(C)=O)[C@@H](C)O)C(=O)N[C@@H](C)C(=O)N[C@@H](Cc1c[nH]c2ccccc12)C(=O)NCC(=O)N1CCC[C@H]1C(=O)N[C@H](C(=O)NCC(=O)N[C@@H](CC(=O)O)C(=O)N[C@@H](CCC(=O)O)C(=O)N[C@@H](CC(=O)O)C(N)=O)[C@@H](C)O` [ETE(N-Me-F)IAWGPTGDED] (Ac-ETE[NMeF]IAWGPTGDED-NH2) was tested. Which Ki [5] did it give?
A: 252 ± 5 nM
